Laboratory results: the supplement of paper PMC10307832

Legend:
Assay in all cases: relative viability (nuclei count vs DMSO), 5 days (fraction); higher = more cells survive
[1] = compound: CC1=NN=C(O1)C2=NN=C(C=C2)N3CCC(CC3)OC4=C(C=CC(=C4)F)Cl + N=C(N)NC(=N)NCCc1ccccc1 [Phenformin] (partner 250 µM)
Method in brief: (§1)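 Medians of duplicate plates are given as relative viability. That measure is the nuclei count in treated wells divided by the count in vehicle wells. Counts were taken on 4× images of lung cancer cell lines in 1536-well plates, 5 days after pin-tool dosing the day after seeding with one drug alone or a fixed anchor-drug dose plus five library-drug doses (not always all listed) in √10 steps.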

[2] = compound: CC1=NN=C(O1)C2=NN=C(C=C2)N3CCC(CC3)OC4=C(C=CC(=C4)F)Cl + Cc1nc(NC(=O)N2CCC[C@H]2C(N)=O)sc1-c1ccnc(C(C)(C)C(F)(F)F)c1 [Alpelisib] (partner 2 µM)
Method in brief: as §1

[3] = compound: CC1=NN=C(O1)C2=NN=C(C=C2)N3CCC(CC3)OC4=C(C=CC(=C4)F)Cl + CC(=O)c1c(C)c2cnc(Nc3ccc(N4CCNCC4)cn3)nc2n(C2CCCC2)c1=O [Palbociclib] (partner 0.5 µM)
Method in brief: as §1

[4] = compound: CC1=NN=C(O1)C2=NN=C(C=C2)N3CCC(CC3)OC4=C(C=CC(=C4)F)Cl + Cc1cc(Nc2cc(N3CCN(C)CC3)nc(Sc3ccc(NC(=O)C4CC4)cc3)n2)n[nH]1 [Tozasertib] (partner 0.1 µM)
Method in brief: as §1

Cell Line	relative viability ([1]; first compound 0.253 µM)	relative viability ([1]; first compound 0.8 µM)	relative viability ([1]; first compound 2.53 µM)	relative viability ([1]; first compound 8 µM)	relative viability ([2]; first compound 0.253 µM)	relative viability ([2]; first compound 0.8 µM)	relative viability ([2]; first compound 2.53 µM)	relative viability ([2]; first compound 8 µM)	relative viability ([3]; first compound 0.253 µM)	relative viability ([3]; first compound 0.8 µM)	relative viability ([3]; first compound 2.53 µM)	relative viability ([3]; first compound 8 µM)	relative viability ([4]; first compound 0.253 µM)	relative viability ([4]; first compound 0.8 µM)	relative viability ([4]; first compound 2.53 µM)	relative viability ([4]; first compound 8 µM)
NCI-H838	0.588	0.434	0.515	0.504	0.833	0.867	0.916	0.947	0.192	0.24	0.222	0.196	0.244	0.248	0.247	0.245
NCI-H1355	0.405	0.37	0.446	0.411	–	–	0.78	0.734	0.25	0.359	0.353	0.353	0.496	0.344	0.402	0.365
NCI-H1395	0.453	0.398	0.439	0.429	0.962	0.897	0.995	1	0.562	0.592	0.599	0.626	0.69	0.581	0.72	0.683
NCI-H1437	0.209	0.236	0.288	0.252	0.696	0.63	0.804	0.591	0.22	0.233	0.268	0.168	0.256	0.204	0.228	0.175
NCI-H1651	0.367	0.487	0.368	0.325	0.821	0.78	0.777	0.75	0.337	0.387	0.331	0.346	0.58	0.66	0.567	0.571
NCI-H1666	0.509	0.57	0.555	0.584	0.672	0.738	0.846	0.792	0.632	0.684	0.651	0.627	0.43	0.496	0.458	0.388
NCI-H1734	0.429	0.32	0.405	0.395	0.655	0.635	0.672	0.556	0.344	0.334	0.345	0.324	0.262	0.287	0.216	0.247
NCI-H1755	0.567	0.565	0.523	0.56	0.713	0.697	0.709	0.671	0.334	0.451	0.464	0.4	0.425	0.45	0.467	0.405
NCI-H1793	0.402	0.385	0.37	0.315	0.716	0.773	0.717	0.559	0.304	0.314	0.342	0.301	0.368	0.302	0.219	0.195
NCI-H1915	0.377	0.287	0.332	0.243	0.506	0.391	0.437	0.31	0.385	0.291	0.319	0.266	0.265	0.222	0.222	0.192
